# Test results published in article PMC8286823, “Identifying SARS-CoV-2 antiviral compounds by screening for small molecule inhibitors of nsp15 endoribonuclease” (Biochemical Journal, 2021).
# Values joined by “and” are separate entries in the source; they are usually repeats but may differ in a detail not shown here. Equal values may be shown once. Where a name gives a salt, the structure may show the parent alone.
# Experiments:
# [1] = target: T1, SARS-CoV-2 nsp15 endoribonuclease (Severe acute respiratory syndrome coronavirus 2, UniProt P0DTD1); format: biochemical; conditions: 100 µM compound, 500 nM nsp15, 1 µM 16 nt U substrate; for mean cleavage (%): 20 min at 30°C, n=3
# [2] = target: T1, SARS-CoV-2 nsp15 endoribonuclease; assay: biochemical; format: biochemical
# [3] = target: T1, SARS-CoV-2 nsp15 endoribonuclease
# RNase A = RNase A (Bos taurus, UniProt P61823); assay: Gel-based nuclease specificity assay with 16 nt U substrate, RNase A; format: biochemical; conditions: 0, 11, 33 or 100 µM; 1 pg/µl RNase A, 1 µM 16 nt U substrate
# SARS-CoV-2 = SARS-CoV-2 infectivity assay in VERO E6 cells (viral area, anti-N staining); format: cell-based
# Experimental: (§1) We infected VERO E6 cells with SARS-CoV-2 in the presence of a range of concentrations of NSC95397 and quantified viral infected area (Figure 5A,B). NSC95397 sacrificed VERO E6 cells at concentrations above 10 μM, consistent with previous reports that NSC95397 is an inhibitor of the Cdc25 protein phosphatase and multiple protein kinases [[39–42]]. This made it more difficult to assess viral growth. With the aim of finding a concentration of NSC95397 that inhibited viral growth without killing the cells, we performed a second titration at lower NSC95397 concentrations (Figure 5C,D).
# (§2) Figure 5. […] (A) SARS-CoV-2 infectivity assays in the presence of NSC95397. DNA in cells was stained with DRAQ5, and virus was immunostained with anti-N antibody. (B) Quantification of normalised viral area (black) and cell area (gray) ±SD. […] (D) Quantification of C as in B. (E) SARS-CoV-2 infectivity assays as in C in the presence of 0.5 µM remdesivir. (F) Quantification of E as in B, note that black control line is quantification of control experiment in C.
# (§3) Infectivity assays were performed as in the accompanying manuscript (see Zeng et al.). […] The whole well area was delineated, and area of Alexa488/N protein and DRAQ5/DNA signals were determined for each well. […]
# [4] = target: T2, Pierce Universal Nuclease (benzonase) (Serratia marcescens, UniProt P13717); assay: Gel-based nuclease specificity assay with 16 nt U substrate, benzonase; format: biochemical; conditions: 0, 11, 33 or 100 µM; 25 mU/µl Pierce Universal Nuclease, 1 µM 16 nt U substrate
# T2 construct: purchased Pierce
# VERO E6 cells = assay: Cell survival (cell area, DRAQ5) in SARS-CoV-2 infectivity assay; format: cell-based, Chlorocebus sabaeus; conditions: infected VERO E6 cells, 22 h
# Experimental: as §1, §2, §3
# T2 sequence (P13717 22-266): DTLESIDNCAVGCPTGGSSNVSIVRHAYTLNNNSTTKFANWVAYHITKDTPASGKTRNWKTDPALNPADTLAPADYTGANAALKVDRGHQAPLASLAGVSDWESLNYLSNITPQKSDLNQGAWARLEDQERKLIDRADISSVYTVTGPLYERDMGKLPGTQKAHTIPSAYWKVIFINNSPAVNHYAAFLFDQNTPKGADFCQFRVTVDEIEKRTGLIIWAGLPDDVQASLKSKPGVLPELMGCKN
# Sequence of RNase A (P61823 27-150): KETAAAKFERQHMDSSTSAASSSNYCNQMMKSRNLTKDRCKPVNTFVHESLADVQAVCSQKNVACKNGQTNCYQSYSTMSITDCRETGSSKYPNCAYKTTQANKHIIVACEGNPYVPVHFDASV
Structure (SMILES),mean cleavage (%) [1],activity [3],also measured
Cc1c(COc2cc(OCc3cccc(C#N)c3)c(CN3C[C@H](O)C[C@@H]3C(=O)O)cc2Cl)cccc1-c1ccc2c(c1)OCCO2 [BMS-1166],58%,,effect on nsp15 endoribonuclease activity in gel-based assay [1]: did not inhibit the enzyme even at 100 µM; inhibition of nsp15 endoribonuclease activity in plate reader [2]: able to inhibit nsp15 endoribonuclease activity
O=c1cc(-c2ccccc2)oc2cc(O)c(O)c(O)c12 [Baicalein],64%,80%,
C=C(C)[C@@H]1CC[C@]2(C(=O)O)CC[C@]3(C)[C@H](CC[C@@H]4[C@@]5(C)CC[C@H](O)C(C)(C)[C@@H]5CC[C@]43C)[C@@H]12 [Betulinic acid],51%,,
Cl.Cl.NCCC(=O)NCCc1cnc[nH]1 [Carcinine dihydrochloride],76%,,
COc1cc(/C=C/C(=O)CC(=O)/C=C/c2ccc(O)c(OC)c2)ccc1O [Curcumin],,95% and 100%,
CN1C[C@H](C(=O)N[C@]2(C)O[C@@]3(O)[C@@H]4CCCN4C(=O)[C@H](Cc4ccccc4)N3C2=O)C[C@@H]2c3cccc4[nH]cc(c34)C[C@H]21 [Dihydroergotamine mesylate],,95% and 98%,
CN1C[C@H](C(=O)N[C@]2(C)O[C@@]3(O)[C@@H]4CCCN4C(=O)[C@H](Cc4ccccc4)N3C2=O)C=C2c3cccc4[nH]cc(c34)C[C@H]21 [Ergotamine],,99% and 100%,
O=C1c2cc([N+](=O)[O-])ccc2-n2c1nc1ccccc1c2=O [GNF-PF-3777],60%,,effect on nsp15 endoribonuclease activity in gel-based assay [1]: had no effect even at 100 µM
Cn1cnc2nc(NCCO)nc(NCc3ccccc3)c21 [Iso-Olomoucine],60%,,
CC(C)(C)c1nc2c3cc[nH]c(=O)c3c3cc(F)ccc3c2[nH]1 [JAK Inhibitor I],65%,,
CCCNS(=O)(=O)Nc1ncnc(OCCOc2ncc(Br)cn2)c1-c1ccc(Br)cc1 [Macitentan],64%,,
CC#C[C@]1(O)CC[C@H]2[C@@H]3CCC4=CC(=O)CCC4=C3[C@@H](c3ccc(N(C)C)cc3)C[C@@]21C [Mifepristone],63%,85%,
O=Nc1ccc2oc(=O)ccc2c1 [NOBP],63%,,
O=C1C(SCCO)=C(SCCO)C(=O)c2ccccc21 [NSC95397],9%,,"effect on nsp15 endoribonuclease activity in gel-based assay [1]: inhibited nsp15 endoribonuclease; effect on nuclease cleavage by RNase A (RNase A): did not affect nuclease cleavage; SARS-CoV-2 viral growth in VERO E6 cells (SARS-CoV-2; MOI 0.5 PFU/cell, 22 h post-infection, titration at lower concentrations): viral growth was not inhibited; additive effect with remdesivir on SARS-CoV-2 infectivity (SARS-CoV-2; VERO E6 cells, NSC95397 titration in the presence of 0.5 µM remdesivir): did not observe any additive effect; effect on nuclease cleavage by benzonase [4]: did not affect nuclease cleavage; Hill slope [2]: -2.5; IC50 [2]: 43 µM; inhibition of nsp15 endoribonuclease activity in plate reader [2]: able to inhibit nsp15 endoribonuclease activity; concentration that sacrificed VERO E6 cells (VERO E6 cells): above 10 μM"
CO[C@@H]1[C@@H](OC(N)=O)[C@@H](O)[C@H](Oc2ccc3c(O)c(NC(=O)c4ccc(O)c(CC=C(C)C)c4)c(=O)oc3c2C)OC1(C)C [Novobiocin],,98% and 95%,
Cc1ncc([N+](=O)[O-])n1CC(O)CCl (stereo not drawn) [Ornidazole],62%,66%,
CC(COc1ccccc1)N(CCCl)Cc1ccccc1 (stereo not drawn) [Phenoxybenzamine],58%,37%,
Oc1cc2c(cc1O)C(c1ccccc1)CNCC2 (stereo not drawn) [SKF 38393 hydrobromide],62%,65%,
C[C@H]1CC[C@@]2(OC1)O[C@H]1C[C@H]3[C@@H]4CC[C@@H]5C[C@@H](O)CC[C@]5(C)[C@H]4CC[C@]3(C)[C@H]1[C@@H]2C [Sarsasapogenin],,100% and 96%,
